Measurements taken from the supplement of paper PMC10307832.

Tests used:
Assay in all cases: relative viability (nuclei count vs DMSO), 5 days (fraction); higher = more cells survive
HCC-78 = tested on: HCC-78
Summary of the method: (§1)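 For relative viability, nuclei counts in treated wells were divided by those in vehicle wells. Lung cancer cell lines had been pin-tool dosed in 1536-well plates the day after seeding and cultured for 5 days, then fixed and stained in one step (final 0.05% Triton X-100, 1% formaldehyde, 1 ug/ml Hoechst) and imaged at 4×. Doses were one drug alone or a fixed anchor-drug dose plus five library-drug doses (not always all listed) in √10 steps, and values are duplicate-plate medians.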

COR-L 105 = tested on: COR-L 105
Summary of the method: as §1

NCI-H1437 = tested on: NCI-H1437
Summary of the method: as §1

SK-LU-1 = tested on: SK-LU-1
Summary of the method: as §1

LOU-NH91 = tested on: LOU-NH91
Summary of the method: as §1

NCI-H1734 = tested on: NCI-H1734
Summary of the method: as §1

NCI-H358 = tested on: NCI-H358
Summary of the method: as §1

EKVX = tested on: EKVX
Summary of the method: as §1

NCI-H522 = tested on: NCI-H522
Summary of the method: as §1

NCI-H2085 = tested on: NCI-H2085
Summary of the method: as §1

LK-2 = tested on: LK-2
Summary of the method: as §1

SW 900 = tested on: SW 900
Summary of the method: as §1

NCI-H1792 = tested on: NCI-H1792
Summary of the method: as §1

NCI-H1648 = tested on: NCI-H1648
Summary of the method: as §1

BEN = tested on: BEN
Summary of the method: as §1

HCC-827 = tested on: HCC-827
Summary of the method: as §1

EPLC-272H = tested on: EPLC-272H
Summary of the method: as §1

LU99A = tested on: LU99A
Summary of the method: as §1

UMC-11 = tested on: UMC-11
Summary of the method: as §1

NCI-H1650 = tested on: NCI-H1650
Summary of the method: as §1

EMC-BAC-2 = tested on: EMC-BAC-2
Summary of the method: as §1

NCI-H647 = tested on: NCI-H647
Summary of the method: as §1

NCI-H2023 = tested on: NCI-H2023
Summary of the method: as §1

NCI-H650 = tested on: NCI-H650
Summary of the method: as §1

SMILES: C=C1C(=O)O[C@@H](CCCCCCCC)[C@@H]1C(=O)O [C-75] + CC(=O)c1c(C)c2cnc(Nc3ccc(N4CCNCC4)cn3)nc2n(C2CCCC2)c1=O [Palbociclib] (partner 0.5 µM)
- relative viability (HCC-78; first compound 0.08 µM): 0.476
- relative viability (HCC-78; first compound 0.253 µM): 0.469
- relative viability (HCC-78; first compound 0.8 µM): 0.514
- relative viability (HCC-78; first compound 2.53 µM): 0.459
- relative viability (HCC-78; first compound 8 µM): 0.461
- relative viability (COR-L 105; first compound 0.08 µM): 0.417
- relative viability (COR-L 105; first compound 0.253 µM): 0.41
- relative viability (COR-L 105; first compound 0.8 µM): 0.358
- relative viability (COR-L 105; first compound 2.53 µM): 0.303
- relative viability (COR-L 105; first compound 8 µM): 0.39
- relative viability (NCI-H1437; first compound 0.08 µM): 0.301
- relative viability (NCI-H1437; first compound 0.253 µM): 0.381
- relative viability (NCI-H1437; first compound 0.8 µM): 0.299
- relative viability (NCI-H1437; first compound 8 µM): 0.312
- relative viability (SK-LU-1; first compound 0.08 µM): 0.384
- relative viability (SK-LU-1; first compound 0.253 µM): 0.43
- relative viability (SK-LU-1; first compound 0.8 µM): 0.429
- relative viability (SK-LU-1; first compound 2.53 µM): 0.387
- relative viability (SK-LU-1; first compound 8 µM): 0.384
- relative viability (LOU-NH91; first compound 0.08 µM): 0.534
- relative viability (LOU-NH91; first compound 0.253 µM): 0.536
- relative viability (LOU-NH91; first compound 0.8 µM): 0.504
- relative viability (LOU-NH91; first compound 8 µM): 0.464
- relative viability (NCI-H1734; first compound 0.08 µM): 0.34
- relative viability (NCI-H1734; first compound 0.253 µM): 0.315
- relative viability (NCI-H1734; first compound 0.8 µM): 0.36
- relative viability (NCI-H1734; first compound 2.53 µM): 0.254
- relative viability (NCI-H1734; first compound 8 µM): 0.345
- relative viability (NCI-H358; first compound 0.08 µM): 0.137
- relative viability (NCI-H358; first compound 0.253 µM): 0.135
- relative viability (NCI-H358; first compound 0.8 µM): 0.147
- relative viability (NCI-H358; first compound 8 µM): 0.135
- relative viability (EKVX; first compound 0.08 µM): 0.4
- relative viability (EKVX; first compound 0.253 µM): 0.307
- relative viability (EKVX; first compound 0.8 µM): 0.383
- relative viability (EKVX; first compound 8 µM): 0.425
- relative viability (NCI-H522; first compound 0.08 µM): 1.27
- relative viability (NCI-H522; first compound 0.253 µM): 0.989
- relative viability (NCI-H522; first compound 0.8 µM): 1.06
- relative viability (NCI-H522; first compound 2.53 µM): 0.698
- relative viability (NCI-H522; first compound 8 µM): 0.779
- relative viability (NCI-H2085; first compound 0.08 µM): 0.491
- relative viability (NCI-H2085; first compound 0.253 µM): 0.403
- relative viability (NCI-H2085; first compound 0.8 µM): 0.443
- relative viability (NCI-H2085; first compound 2.53 µM): 0.436
- relative viability (NCI-H2085; first compound 8 µM): 0.468
- relative viability (LK-2; first compound 0.08 µM): 0.779
- relative viability (LK-2; first compound 0.253 µM): 0.754
- relative viability (LK-2; first compound 0.8 µM): 0.723
- relative viability (LK-2; first compound 2.53 µM): 0.495
- relative viability (LK-2; first compound 8 µM): 0.573
- relative viability (SW 900; first compound 0.08 µM): 0.49
- relative viability (SW 900; first compound 0.253 µM): 0.647
- relative viability (SW 900; first compound 0.8 µM): 0.601
- relative viability (SW 900; first compound 2.53 µM): 0.594
- relative viability (SW 900; first compound 8 µM): 0.607
- relative viability (NCI-H1792; first compound 0.08 µM): 0.67
- relative viability (NCI-H1792; first compound 0.253 µM): 0.656
- relative viability (NCI-H1792; first compound 0.8 µM): 0.686
- relative viability (NCI-H1792; first compound 2.53 µM): 0.381
- relative viability (NCI-H1792; first compound 8 µM): 0.65
- relative viability (NCI-H1648; first compound 0.08 µM): 0.251
- relative viability (NCI-H1648; first compound 0.253 µM): 0.398
- relative viability (NCI-H1648; first compound 0.8 µM): 0.292
- relative viability (NCI-H1648; first compound 8 µM): 0.295
- relative viability (BEN; first compound 0.08 µM): 0.509
- relative viability (BEN; first compound 0.253 µM): 0.483
- relative viability (BEN; first compound 0.8 µM): 0.46
- relative viability (BEN; first compound 2.53 µM): 0.375
- relative viability (BEN; first compound 8 µM): 0.452
- relative viability (HCC-827; first compound 0.253 µM): 0.519
- relative viability (HCC-827; first compound 0.8 µM): 0.5
- relative viability (HCC-827; first compound 8 µM): 0.494
- relative viability (EPLC-272H; first compound 0.08 µM): 0.312
- relative viability (EPLC-272H; first compound 0.253 µM): 0.387
- relative viability (EPLC-272H; first compound 0.8 µM): 0.333
- relative viability (EPLC-272H; first compound 2.53 µM): 0.244
- relative viability (EPLC-272H; first compound 8 µM): 0.365
- relative viability (LU99A; first compound 0.08 µM): 0.383
- relative viability (LU99A; first compound 0.253 µM): 0.354
- relative viability (LU99A; first compound 0.8 µM): 0.481
- relative viability (LU99A; first compound 2.53 µM): 0.408
- relative viability (LU99A; first compound 8 µM): 0.398
- relative viability (UMC-11; first compound 0.08 µM): 0.308
- relative viability (UMC-11; first compound 0.253 µM): 0.315
- relative viability (UMC-11; first compound 0.8 µM): 0.321
- relative viability (UMC-11; first compound 2.53 µM): 0.351
- relative viability (UMC-11; first compound 8 µM): 0.268
- relative viability (NCI-H1650; first compound 0.08 µM): 0.431
- relative viability (NCI-H1650; first compound 0.253 µM): 0.414
- relative viability (NCI-H1650; first compound 0.8 µM): 0.342
- relative viability (NCI-H1650; first compound 8 µM): 0.38
- relative viability (EMC-BAC-2; first compound 0.08 µM): 0.522
- relative viability (EMC-BAC-2; first compound 0.253 µM): 0.505
- relative viability (EMC-BAC-2; first compound 0.8 µM): 0.515
- relative viability (EMC-BAC-2; first compound 2.53 µM): 0.438
- relative viability (EMC-BAC-2; first compound 8 µM): 0.521
- relative viability (NCI-H647; first compound 0.08 µM): 0.312
- relative viability (NCI-H647; first compound 0.253 µM): 0.384
- relative viability (NCI-H647; first compound 0.8 µM): 0.394
- relative viability (NCI-H647; first compound 2.53 µM): 0.239
- relative viability (NCI-H647; first compound 8 µM): 0.236
- relative viability (NCI-H2023; first compound 0.08 µM): 0.395
- relative viability (NCI-H2023; first compound 0.253 µM): 0.449
- relative viability (NCI-H2023; first compound 0.8 µM): 0.358
- relative viability (NCI-H2023; first compound 2.53 µM): 0.244
- relative viability (NCI-H2023; first compound 8 µM): 0.276
- relative viability (NCI-H650; first compound 0.08 µM): 0.31
- relative viability (NCI-H650; first compound 0.253 µM): 0.27
- relative viability (NCI-H650; first compound 0.8 µM): 0.36
- relative viability (NCI-H650; first compound 2.53 µM): 0.283
- relative viability (NCI-H650; first compound 8 µM): 0.39
